Measured values as given in patent publication US8378104B2 (OSI Pharmaceuticals, LLC, priority 2010, dated 2013).
Structures can show the parent of a compound that is named as a salt. Where two headings read alike, the source gives them in different places.

Tests used:
[1] = target: T1, TAK1-TAB1 fusion protein (Homo sapiens, UniProt O43318); assay: TAK1 biochemical assay (AlphaScreen, GST-MAP2K7 substrate)
T1 construct: purchased Carna
T1 sequence (O43318 with tags, fused parts or gaps limits assumed): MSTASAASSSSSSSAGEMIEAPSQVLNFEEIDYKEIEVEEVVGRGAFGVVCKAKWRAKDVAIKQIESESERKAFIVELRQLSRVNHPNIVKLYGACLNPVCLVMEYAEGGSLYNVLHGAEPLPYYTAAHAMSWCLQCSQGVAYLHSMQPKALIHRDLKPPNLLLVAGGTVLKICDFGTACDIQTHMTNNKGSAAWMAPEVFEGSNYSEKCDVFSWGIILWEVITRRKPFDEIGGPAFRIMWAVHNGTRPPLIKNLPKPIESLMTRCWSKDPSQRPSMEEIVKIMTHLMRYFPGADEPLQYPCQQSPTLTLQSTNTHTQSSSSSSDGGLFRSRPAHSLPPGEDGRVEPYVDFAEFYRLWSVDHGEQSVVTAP

[2] = test system: pJNK in HCT-116 cells; assay: Phospho-JNK (Thr183/Tyr185) Meso Scale ELISA assay, TNFα-stimulated HCT-116 cells; type: cell-based; conditions: Homo sapiens, read-out: mean HCT-116 pJNK ELISA IC50 (Col. B)
Experimental: Detailed below are ELISA assays for pJNK and p38, and a TAK1 biochemical assay. […] In Table 1, Col.
Phospho-JNK (Thr183/Tyr185) Meso Scale ELISA Assay
• 1. Plate HCT-116 cells at 25,000 per well in 100 uL in 96 well clear dishes in normal growth medium. Day 2: • 1. Aspirate medium and replace with 90 μl reduced serum growth medium (1% FCS), incubate for 2 hours at 37° C. • 2. Make drugs at 10× in reduced serum medium and add 10 uL per well. • 3. Incubate at 37° C. for 4 hrs. • 4. Bring capture plates to room temperature. • 5. Block with 150 μl Blocking Solution (provided with kit) (600 mg Blocker A into 20 mL 1× Wash Buffer per plate) at room temperature with shaking. • 6. Wash plates 4× with 200 μl 1× wash buffer (10× provided with kit) before transferring lysates. • 7. Dilute TNFα to […] in reduced serum medium (this makes a 10× working stock). • 8. Add 10 μl TNFα to all wells except negative control wells, final concentration is 10 ng/mL. • 9. Incubate at 37° C. for 10 minutes. • 10. Remove medium by flicking into sink • 11. Wash cells with 100 uL ice cold PBS. • 12. Remove PBS by flicking into sink and patting on paper towels. • 13. Lyse cells in 50 μl ice cold 1× Complete Lysis Buffer plus Phosphatase and Protease inhibitors (all provided with kit) (10 mL Tris Lysis Buffer+200 μl Protease inhibitor solution+100 μl Phosphatase inhibitor I+100 μl Phosphatase inhibitor II). • 14. Incubate with shaking at 4° C. for 30 minutes. • 15. Transfer 45 μl to capture plate, cover with adhesive cover, and incubate at 4° C. over night with shaking. • Day 3: • 1. Wash plates 4× with 200 μl 1× wash buffer (10× provided with kit). • 2. […] Incubate at room temperature with shaking for 1 hour. • 4. Wash 4× with 200 μl 1× Wash Buffer. • 5. […] Read on Sector Imager. Phospho-p38 Meso Scale ELISA Assay Day 1: • 1. Plate HCT-116 cells at 25,000 per well in 100 uL in 96 well clear dishes in normal growth medium. zday 2: • 1. Aspirate medium and replace with 90 μl reduced serum growth medium (1% FCS), incubate for 2 hours at 37° C. • 2. Make drugs at 10× in reduced serum medium and add 10 uL per well. • 3. Incubate at 37° C. for 4 hrs. • 4. Bring capture plates to room temperature. • 5. Block with 150 μl Blocking Solution (provided with kit) (600 mg Blocker A into 20 mL 1× Wash Buffer per plate) at room temperature with shaking. • 6. Wash plates 4× with 200 μl 1× wash buffer (10× provided with kit) before transferring lysates. • 7. Dilute TNFα to […] in reduced serum medium (this makes a 10× working stock). • 8. Add 10 μl TNFα to all wells except negative control wells, final concentration is 10 ng/mL. • 9. Incubate at 37° C. for 10 minutes. • 10. Remove medium by flicking into sink • 11. Wash cells with 100 uL ice cold PBS. • 12. Remove PBS by flicking into sink and patting on paper towels. • 13. Lyse cells in 50 μl ice cold 1× Complete Lysis Buffer plus phosphatase and protease inhibitors (all provided with kit) (10 mL Tris Lysis Buffer+200 μl Protease inhibitor solution+100 μl Phosphatase inhibitor I+100 μl Phosphatase inhibitor II). • 14. Incubate with shaking at 4° C. for 30 minutes. • 15. Dilute lysates before transferring to capture plate with 100 μl Complete p38 Lysate • Dilution Buffer (provided with kit) (10 mL of Diluent 20±200 μl Protease inhibitor solution+100 μl Phosphatase inhibitor I+100 μl Phosphatase inhibitor II). • 16. Transfer 50 μl of diluted lysates to capture plate, cover with adhesive cover, and incubate at 4° C. over night with shaking. Day 3: • 1. Wash plates 4× with 200 μl 1× wash buffer (10× provided with kit). • 2. […] Incubate at room temperature with shaking for 1 hour. • 4. Wash 4× with 200 μl 1× Wash Buffer. • 5. […] Read on Sector Imager. TAK1 Biochemical Assay

[3] = TAK1-TAB1 fusion protein, GST-MAP2K7 substrate, read-out: mean TAK1 IC50 (Col. A)

Row | IC50 [1] [nM] | IC50 [2] [nM] | IC50 [1, 3] [nM] | Compound
1 |  | < 100 | < 100 | COCc1nc2cccc(-c3cc4c(-c5cnn([C@H]6CC[C@H](O)CC6)c5)cnc(N)c4o3)c2s1 [Example 349, trans-4-(4-{7-amino-2-[2-(methoxymethyl)-1,3-benzothiazol-7-yl]furo[2,3-c]pyridin-4-yl}-1H-pyrazol-1-yl)cyclohexanol Trifluoroacetate (salt)]
2 |  | 1000 to 10000 | 100 to 1000 | CC(=O)N1CCC(n2cc(-c3cnc(N)c4oc(-c5c6ccncc6nn5C)cc34)cn2)CC1 [Example 364, 1-(4-{4-[7-amino-2-(2-methyl-2H-pyrazolo[3,4-c]pyridin-3-yl)furo[2,3-c]pyridin-4-yl]-1H-pyrazol-1-yl}piperidin-1-yl)ethanone trifluoroacetic Acid Salt]
3 |  | 100 to 1000 | 100 to 1000 | CC(=O)N1CCC(n2cc(-c3cnc(N)c4oc(-c5cccc6cnncc56)cc34)cn2)CC1 [Example 367, 1-(4-{4-[7-amino-2-(phthalazin-5-yl)furo[2,3-c]pyridin-4-yl]-1H-pyrazol-1-yl}piperidin-1-yl)ethanone]
4 |  | < 100 | < 100 | Nc1ncc(-c2cnn([C@H]3CC[C@H](O)CC3)c2)c2cc(-c3cccn4cncc34)oc12 [Example 365, trans-4-{4-[7-amino-2-(imidazo[1,5-a]pyridin-8-yl)furo[2,3-c]pyridin-4-yl]-1H-pyrazol-1-yl}cyclohexanol.diformate]
5 |  | < 100 | < 100 | CNc1nc2cccc(-c3cc4c(-c5cnn(C6CCN(C(C)=O)CC6)c5)cnc(N)c4o3)c2s1 [Example 350, 1-[4-(4-{7-amino-2-[2-(methylamino)-1,3-benzothiazol-7-yl]furo[2,3-d]pyridin-4-yl}-1H-pyrazol-1-yl)piperidin-1-yl]ethanone trifluoroacetate]
6 |  | 1000 to 10000 | 100 to 1000 | Nc1ncc(-c2cnn([C@H]3CC[C@H](O)CC3)c2)c2cc(-c3csc4cnc(O)cc34)oc12 [Example 360, 3-{7-Amino-4-[1-(trans-4-hydroxycyclohexyl)-1H-pyrazol-4-yl]furo[2,3-c]pyridin-2-yl}thieno[2,3-c]pyridin-5-ol]

Continued, molecule first:

Row | Compound | IC50 [1] [nM] | IC50 [2] [nM] | IC50 [1, 3] [nM]
7 | Nc1ncc(-c2cnn([C@H]3CC[C@H](O)CC3)c2)c2c(Cl)c(-c3cccc4nnsc34)oc12 [Example 286, trans-4-{4-[7-amino-2-(1,2,3-benzothiadiazol-7-yl)-3-chlorofuro[2,3-c]pyridin-4-yl]-1H-pyrazol-1-yl}cyclohexanol] | < 100 | < 100 | 
8 | Nc1ncc(-c2cnn(C3CCN(C(=O)Nc4cccc5c4CCCC5)CC3)c2)c2cc(-c3cccc4cnsc34)oc12 [Example 340, 4-[4-(7-amino-2-benzo[d]isothiazol-7-yl-furo[2,3-c]pyridin-4-yl)-pyrazol-1-yl]-piperidine-1-carboxylic acid (5,6,7,8-tetrahydro-naphthalen-1-yl)-amide] |  | 100 to 1000 | 100 to 1000
9 | Nc1ncc(-c2cnn([C@H]3CC[C@H](O)CC3)c2)c2cc(-c3c(F)ccc4nnsc34)oc12 [Example 272, trans-4-{4-[7-amino-2-(6-fluoro-1,2,3-benzothiadiazol-7-yl)furo[2,3-c]pyridin-4-yl]-1H-pyrazol-1-yl}cyclohexanol diformate salt] |  | < 100 | < 100
10 | Nc1ncc(-c2cnn([C@H]3CC[C@H](O)CC3)c2)c2c(Cl)c(-c3cccc4cnsc34)oc12 [Example 285, trans-4-{4-[7-amino-2-(1,2-benzothiazol-7-yl)-3-chlorofuro[2,3-c]pyridin-4-yl]-1H-pyrazol-1-yl}cyclohexanol trifluoroacetic Acid Salt] |  | 100 to 1000 | 100 to 1000
11 | Nc1ncc(-c2cnn(C3CCN(C(=O)CCc4ccccc4)CC3)c2)c2cc(-c3csc4cnccc34)oc12 [Example 331, 1-{4-[4-(7-amino-2-thieno[2,3-c]pyridin-3-yl-furo[2,3-c]pyridin-4-yl)-pyrazol-1-yl]-piperidin-1-yl}-3-phenyl-propan-1-one] |  | 100 to 1000 | 100 to 1000
12 | CN(C)C(=O)CCn1cc(-c2cnc(N)c3oc(-c4csc5cnccc45)cc23)cn1 [Example 346, 3-[4-(7-amino-2-thieno[2,3-c]pyridin-3-yl-furo[2,3-c]pyridin-4-yl)-pyrazol-1-yl]-N,N-dimethyl-propionamide] |  | 1000 to 10000 | 100 to 1000
13 | CC(C)CNC(=O)N1CCC(n2cc(-c3cnc(N)c4oc(-c5cccc6cnsc56)cc34)cn2)CC1 [Example 338, 4-[4-(7-amino-2-benzo[d]isothiazol-7-yl-furo[2,3-c]pyridin-4-yl)-pyrazol-1-yl]-piperidine-1-carboxylic acid isobutyl-amide] |  | 100 to 1000 | 100 to 1000
14 | CC(=O)N1CCC(n2cc(-c3cnc(N)c4oc(-c5csc6c(F)nccc56)cc34)cn2)CC1 [Example 256, 1-(4-{4-[7-amino-2-(7-fluorothieno[2,3-c]pyridin-3-yl)furo[2,3-c]pyridin-4-yl]-1H-pyrazol-1-yl}piperidin-1-yl)ethanone trifluoroacetic acid salt] |  | 100 to 1000 | 100 to 1000
15 | Nc1ncc(-c2cnn([C@H]3CC[C@H](O)CC3)c2)c2cc(-c3csc4cnncc34)oc12 [Example 268, trans-4-{4-[7-amino-2-(thieno[2,3-d]pyridazin-3-yl)furo[2,3-c]-pyridin-4-yl]-1H-pyrazol-1-yl}cyclohexanol bistrifluoroacetate] |  | < 100 | < 100
16 | Nc1ncc(-c2cnn([C@@H]3C[C@H]4CC[C@@H](C3)N4C=O)c2)c2cc(-c3cccc4cnsc34)oc12 [Example 326, (3-exo)-3-{4-[7-amino-2-(1,2-benzisothiazol-7-yl)furo[2,3-c]pyridin-4-yl]-1H-pyrazol-1-yl}-8-azabicyclo[3.2.1]octane-8-carbaldehyde] |  | < 100 | < 100
17 | CN1[C@@H]2CC[C@H]1C[C@H](n1cc(-c3cnc(N)c4oc(-c5cccc6cnsc56)cc34)cn1)C2 [Example 330, 2-(1,2-benziso-thiazol-7-yl)-4-{1-[(3-exo)-8-methyl-8-azabicyclo[3.2.1]oct-3-yl]-1H-pyrazol-4-yl}furo[2,3-c]pyridin-7-amine] |  | 100 to 1000 | < 100
18 | Nc1ncc(-c2cnn(C3CCN(C(=O)CCN4CCCCC4)CC3)c2)c2cc(-c3csc4cnccc34)oc12 [Example 332, 1-{4-[4-(7-amino-2-thieno[2,3-c]pyridin-3-yl-furo[2,3-c]pyridin-4-yl)-pyrazol-1-yl]-piperidin-1-yl}-3-piperidin-1-yl-propan-1-one] |  | 100 to 1000 | < 100
